In ChEMBL document CHEMBL1201862, “PubChem BioAssay data set” (2004):
Activity calls are given as the source filed them.

Columns and labels:
[1] = cells
[2] = target: Eukaryotic translation initiation factor 4E (Mus musculus, UniProt P63073); test: blockers of eIF4G binding by eIF4E – biochemical, TR-FRET, dose response (AID 855); format: functional;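 note: potency for disrupting eIF4E binding to eIF4GI seen as loss of FRET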
[3] = target: DNA dC->dU-editing enzyme APOBEC-3G (Homo sapiens, UniProt Q9HC16); format: functional;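 note: Dose-response counterscreen measuring inhibition of APOBEC3G DNA deaminase activity, run while confirming APOBEC3A inhibitors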
Sequence of DNA dC->dU-editing enzyme APOBEC-3G (Q9HC16 whole entry): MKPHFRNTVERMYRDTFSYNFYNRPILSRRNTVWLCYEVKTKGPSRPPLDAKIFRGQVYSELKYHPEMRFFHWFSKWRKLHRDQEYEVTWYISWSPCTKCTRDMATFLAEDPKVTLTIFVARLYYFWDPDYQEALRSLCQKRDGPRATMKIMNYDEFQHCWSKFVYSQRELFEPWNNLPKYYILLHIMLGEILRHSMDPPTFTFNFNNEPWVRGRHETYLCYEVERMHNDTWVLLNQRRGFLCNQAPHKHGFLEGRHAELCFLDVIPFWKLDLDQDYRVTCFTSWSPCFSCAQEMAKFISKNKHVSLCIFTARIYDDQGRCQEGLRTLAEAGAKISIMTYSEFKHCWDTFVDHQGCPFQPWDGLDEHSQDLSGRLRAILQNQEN

[4] = target: DNA dC->dU-editing enzyme APOBEC-3A (Homo sapiens, UniProt P31941); test: Dose Response confirmation of small molecule APOBEC3A DNA Deaminase Inhibitors via a fluorescence-based single-stranded DNA deaminase assay. [Related pubchem assays (depositor defined):AID493011, AID493024]; format: functional
Sequence of DNA dC->dU-editing enzyme APOBEC-3A (P31941 whole entry, the tested form may be a part): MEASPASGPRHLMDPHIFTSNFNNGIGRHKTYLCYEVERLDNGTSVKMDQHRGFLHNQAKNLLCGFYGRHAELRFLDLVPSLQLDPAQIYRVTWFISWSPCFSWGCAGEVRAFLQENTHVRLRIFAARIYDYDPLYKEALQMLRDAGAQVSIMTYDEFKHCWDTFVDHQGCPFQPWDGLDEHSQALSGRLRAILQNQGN

[5] = target: T1, RNA-binding protein pos-1 (Caenorhabditis elegans, UniProt G5EF15); test: disruptors of C. elegans POS-1 RNA interaction – biochemical, fluorescence polarization, dose response (AID 1964);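 note: purified POS-1 fused to maltose binding protein made in E. coli; potency of compounds blocking POS-1 binding to fluorescent RNA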
T1 sequence (G5EF15 whole entry): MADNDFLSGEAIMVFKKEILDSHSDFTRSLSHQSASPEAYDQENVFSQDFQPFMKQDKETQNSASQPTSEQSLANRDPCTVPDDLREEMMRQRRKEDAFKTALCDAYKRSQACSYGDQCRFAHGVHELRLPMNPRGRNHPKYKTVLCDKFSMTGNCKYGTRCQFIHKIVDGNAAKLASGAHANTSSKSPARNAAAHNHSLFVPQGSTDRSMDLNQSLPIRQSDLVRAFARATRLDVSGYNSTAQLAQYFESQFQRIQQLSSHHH

[6] = target: T2, Zinc finger protein mex-5 (Caenorhabditis elegans, UniProt Q9XUB2); test: potency of MEX-5 RNA-binding blockers – biochemical, C. elegans, fluorescence polarization, dose response (AID 1960)
T2 sequence (Q9XUB2 whole entry): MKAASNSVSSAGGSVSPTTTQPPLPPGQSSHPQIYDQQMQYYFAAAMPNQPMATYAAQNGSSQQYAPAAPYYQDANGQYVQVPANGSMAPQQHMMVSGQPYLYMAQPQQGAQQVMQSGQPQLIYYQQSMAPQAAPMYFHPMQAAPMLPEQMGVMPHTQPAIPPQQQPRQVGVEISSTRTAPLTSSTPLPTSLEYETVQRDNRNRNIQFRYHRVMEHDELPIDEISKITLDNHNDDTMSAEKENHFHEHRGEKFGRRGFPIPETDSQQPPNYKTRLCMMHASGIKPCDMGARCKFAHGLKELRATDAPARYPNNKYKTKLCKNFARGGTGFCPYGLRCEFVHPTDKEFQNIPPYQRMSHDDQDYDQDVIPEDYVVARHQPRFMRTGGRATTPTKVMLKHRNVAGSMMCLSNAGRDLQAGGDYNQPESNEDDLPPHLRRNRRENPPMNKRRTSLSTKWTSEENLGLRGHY

[7] = target: Keap1/Nrf2 (Homo sapiens, UniProt Q14145); test: disruptors of Keap1 binding to Nrf2 peptide – biochemical, fluorescence polarization, cherry-picked samples, dose response (AID 588683)
Sequence of Keap1/Nrf2 (Q16236 whole entry): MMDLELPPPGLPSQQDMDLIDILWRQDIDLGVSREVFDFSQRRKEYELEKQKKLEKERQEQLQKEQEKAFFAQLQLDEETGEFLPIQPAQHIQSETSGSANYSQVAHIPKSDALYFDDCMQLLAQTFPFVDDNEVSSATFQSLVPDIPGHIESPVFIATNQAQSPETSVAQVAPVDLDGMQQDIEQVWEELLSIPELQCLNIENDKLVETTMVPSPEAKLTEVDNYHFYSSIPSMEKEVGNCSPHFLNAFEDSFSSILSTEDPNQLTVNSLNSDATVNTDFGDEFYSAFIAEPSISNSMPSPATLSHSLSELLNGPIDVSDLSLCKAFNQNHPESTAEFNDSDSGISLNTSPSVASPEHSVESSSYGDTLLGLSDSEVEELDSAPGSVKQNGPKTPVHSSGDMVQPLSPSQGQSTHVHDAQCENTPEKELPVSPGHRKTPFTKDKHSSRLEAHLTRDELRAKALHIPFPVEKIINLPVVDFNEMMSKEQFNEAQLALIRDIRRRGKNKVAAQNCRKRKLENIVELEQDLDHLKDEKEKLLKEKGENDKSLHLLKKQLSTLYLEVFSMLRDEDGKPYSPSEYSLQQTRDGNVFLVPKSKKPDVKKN
Sequence of Keap1/Nrf2 (Q14145 whole entry): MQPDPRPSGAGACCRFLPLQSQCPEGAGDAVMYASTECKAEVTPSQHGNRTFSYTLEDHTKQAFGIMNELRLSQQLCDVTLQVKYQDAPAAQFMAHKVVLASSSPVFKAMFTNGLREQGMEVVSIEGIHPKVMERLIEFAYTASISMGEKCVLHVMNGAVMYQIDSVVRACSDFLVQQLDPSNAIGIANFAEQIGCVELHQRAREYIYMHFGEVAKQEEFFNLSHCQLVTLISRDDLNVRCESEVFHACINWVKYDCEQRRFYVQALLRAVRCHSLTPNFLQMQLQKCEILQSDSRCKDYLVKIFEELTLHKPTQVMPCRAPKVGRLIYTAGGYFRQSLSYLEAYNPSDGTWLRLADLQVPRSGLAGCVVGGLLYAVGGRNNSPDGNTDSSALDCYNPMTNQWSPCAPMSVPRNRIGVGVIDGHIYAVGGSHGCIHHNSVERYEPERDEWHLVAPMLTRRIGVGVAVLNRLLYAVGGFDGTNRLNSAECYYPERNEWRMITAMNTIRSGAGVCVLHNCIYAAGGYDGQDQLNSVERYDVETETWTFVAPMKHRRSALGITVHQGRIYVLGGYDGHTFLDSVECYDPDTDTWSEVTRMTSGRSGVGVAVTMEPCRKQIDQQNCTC

[8] = target: T3, Replicative DNA helicase DnaB (Mycobacterium tuberculosis, UniProt P9WMR3); test: DnaB intein splicing inhibitors, dose response, biochemical, cell-free fluorescence (AID 449749); format: functional
T3 sequence (P9WMR3 whole entry): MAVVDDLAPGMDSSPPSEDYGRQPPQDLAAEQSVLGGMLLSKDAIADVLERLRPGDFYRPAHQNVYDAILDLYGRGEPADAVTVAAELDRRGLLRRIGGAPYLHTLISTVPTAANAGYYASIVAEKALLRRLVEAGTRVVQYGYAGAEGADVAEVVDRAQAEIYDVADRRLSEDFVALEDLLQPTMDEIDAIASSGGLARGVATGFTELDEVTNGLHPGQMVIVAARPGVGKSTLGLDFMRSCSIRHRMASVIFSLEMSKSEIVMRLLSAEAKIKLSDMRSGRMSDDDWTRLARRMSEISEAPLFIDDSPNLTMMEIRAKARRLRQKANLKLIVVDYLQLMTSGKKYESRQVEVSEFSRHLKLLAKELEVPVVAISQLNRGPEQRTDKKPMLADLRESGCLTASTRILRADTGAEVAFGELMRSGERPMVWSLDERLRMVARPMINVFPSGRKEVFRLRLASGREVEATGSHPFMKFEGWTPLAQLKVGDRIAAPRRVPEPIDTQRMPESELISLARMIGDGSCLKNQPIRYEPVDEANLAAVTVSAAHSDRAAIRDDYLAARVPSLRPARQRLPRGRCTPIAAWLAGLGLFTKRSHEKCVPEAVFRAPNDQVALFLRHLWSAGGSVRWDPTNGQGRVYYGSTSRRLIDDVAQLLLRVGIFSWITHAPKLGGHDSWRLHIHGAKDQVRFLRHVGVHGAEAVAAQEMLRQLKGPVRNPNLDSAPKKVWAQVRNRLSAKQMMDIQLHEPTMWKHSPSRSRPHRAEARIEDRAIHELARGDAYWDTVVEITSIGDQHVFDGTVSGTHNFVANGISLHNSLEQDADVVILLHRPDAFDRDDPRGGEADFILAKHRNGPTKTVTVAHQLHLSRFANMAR

[9] = target: T4, Hexokinase HKDC1 (Homo sapiens, UniProt Q2TB90); test: inhibition of HKDC1 glucose phosphorylation – biochemical, W721R variant, dose response (AID 504729); format: functional
T4 sequence (Q2TB90 whole entry): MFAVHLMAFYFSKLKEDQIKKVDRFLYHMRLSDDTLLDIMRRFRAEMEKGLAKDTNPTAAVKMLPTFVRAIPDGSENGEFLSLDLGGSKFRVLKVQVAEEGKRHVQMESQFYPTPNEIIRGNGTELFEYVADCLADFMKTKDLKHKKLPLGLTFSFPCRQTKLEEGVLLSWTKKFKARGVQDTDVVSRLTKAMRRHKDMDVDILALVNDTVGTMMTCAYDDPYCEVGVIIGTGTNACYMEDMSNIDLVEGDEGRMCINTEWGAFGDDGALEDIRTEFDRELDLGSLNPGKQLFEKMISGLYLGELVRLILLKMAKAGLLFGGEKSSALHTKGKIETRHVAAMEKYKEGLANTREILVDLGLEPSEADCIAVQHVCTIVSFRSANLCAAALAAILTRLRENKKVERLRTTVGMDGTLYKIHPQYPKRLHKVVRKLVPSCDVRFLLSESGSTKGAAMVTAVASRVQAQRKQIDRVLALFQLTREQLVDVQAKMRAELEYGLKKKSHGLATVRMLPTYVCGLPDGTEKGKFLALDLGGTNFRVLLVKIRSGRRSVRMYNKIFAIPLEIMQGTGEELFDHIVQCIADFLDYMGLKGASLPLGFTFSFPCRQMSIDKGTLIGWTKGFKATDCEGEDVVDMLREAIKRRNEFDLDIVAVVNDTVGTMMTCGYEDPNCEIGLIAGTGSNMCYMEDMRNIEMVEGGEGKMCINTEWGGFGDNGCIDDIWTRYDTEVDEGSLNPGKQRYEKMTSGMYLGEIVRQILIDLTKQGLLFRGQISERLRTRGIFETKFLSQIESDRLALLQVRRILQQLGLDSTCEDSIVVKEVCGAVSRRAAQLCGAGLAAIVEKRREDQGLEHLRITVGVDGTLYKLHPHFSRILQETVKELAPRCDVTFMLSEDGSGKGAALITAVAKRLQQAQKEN

[10] = target: T5, Protein RecA (Mycobacterium tuberculosis, UniProt P9WHJ3); test: Fluorescence Cell-Free Homogeneous Dose Retest to Identify Inhibitors of RecA-Intein Splicing Activity. [Related pubchem assays (depositor defined):AID2097, AID2223, AID489010, AID492950]; format: functional
T5 sequence (P9WHJ3 whole entry): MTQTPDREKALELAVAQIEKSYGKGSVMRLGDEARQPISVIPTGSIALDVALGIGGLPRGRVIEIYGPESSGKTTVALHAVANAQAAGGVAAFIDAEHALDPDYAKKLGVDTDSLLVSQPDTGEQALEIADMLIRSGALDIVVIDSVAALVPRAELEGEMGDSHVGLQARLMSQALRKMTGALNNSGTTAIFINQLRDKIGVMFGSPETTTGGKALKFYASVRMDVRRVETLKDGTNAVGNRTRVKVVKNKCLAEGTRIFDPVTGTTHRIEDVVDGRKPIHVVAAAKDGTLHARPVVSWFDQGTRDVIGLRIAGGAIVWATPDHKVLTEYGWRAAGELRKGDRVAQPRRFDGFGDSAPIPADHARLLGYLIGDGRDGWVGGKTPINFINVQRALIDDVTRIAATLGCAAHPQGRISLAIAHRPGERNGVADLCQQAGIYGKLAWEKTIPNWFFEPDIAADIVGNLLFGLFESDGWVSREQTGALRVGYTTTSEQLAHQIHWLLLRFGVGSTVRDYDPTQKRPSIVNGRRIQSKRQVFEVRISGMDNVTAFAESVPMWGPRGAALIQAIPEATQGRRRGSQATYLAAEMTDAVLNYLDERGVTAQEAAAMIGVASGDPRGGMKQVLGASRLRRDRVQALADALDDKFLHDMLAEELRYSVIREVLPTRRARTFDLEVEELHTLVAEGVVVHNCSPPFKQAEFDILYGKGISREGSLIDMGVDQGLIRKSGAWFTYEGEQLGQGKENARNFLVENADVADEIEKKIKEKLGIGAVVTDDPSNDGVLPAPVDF

[11] = tested on: HEK293; test: cells; conditions: Homo sapiens;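 note: cells exposed to compound for 14 hours overnight before viability readout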
[12] = target: Tumor necrosis factor (Homo sapiens, UniProt P01375); test: analog potency on TNFa NF-kB signaling – cell-based, revised, SAR follow-up (AID 2337); format: functional
Sequence of Tumor necrosis factor (P01375 whole entry): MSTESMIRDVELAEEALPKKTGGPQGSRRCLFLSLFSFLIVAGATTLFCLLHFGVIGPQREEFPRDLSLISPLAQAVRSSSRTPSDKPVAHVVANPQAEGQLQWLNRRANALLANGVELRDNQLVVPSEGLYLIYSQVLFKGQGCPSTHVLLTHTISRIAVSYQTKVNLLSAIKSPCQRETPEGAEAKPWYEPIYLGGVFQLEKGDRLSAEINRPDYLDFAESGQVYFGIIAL

Sequence of Eukaryotic translation initiation factor 4E (P63073 whole entry): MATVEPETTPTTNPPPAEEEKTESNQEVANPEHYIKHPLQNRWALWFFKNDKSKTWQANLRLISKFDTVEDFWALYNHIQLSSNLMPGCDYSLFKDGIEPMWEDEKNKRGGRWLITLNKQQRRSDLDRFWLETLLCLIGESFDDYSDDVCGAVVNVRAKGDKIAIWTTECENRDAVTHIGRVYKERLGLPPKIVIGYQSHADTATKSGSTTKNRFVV

With `c1csc(-c2nn3c(Cn4cnc5ccccc54)nnc3s2)c1` the IC50 [1] was < 0.1 µM (active) and the IC50 [2] was > 64 µM (inactive).
In the case of `O=C(Nc1ccccc1F)c1ccc(CSc2ncccn2)cc1`, the IC50 [3] was 9.71 µM (active) and the IC50 [4] was 4.88 µM (active).
With `N#C/C(=C\c1c[nH]c2ccccc12)C(=O)NCC1CCCO1` (stereo not given) the IC50 [3] was 5.05 µM (active) and the IC50 [4] was 5.69 µM (active).
For `CCOC(=O)C1CCN(C(=O)Cc2cccc3ccccc23)CC1`, the IC50 [3] was 5.83 µM (active) and the IC50 [4] was 5.89 µM (active).
For `COc1ccc2nc3ccccc3nc2c1NC(=O)c1ccccc1Cl`, the EC50 [5] was > 300 µM (not active), the EC50 [6] was > 300 µM (not active) and the AC50 [7] was 29.2 µM (active).
In the case of `CCOc1ccc(N(CC(=O)Nc2ccccc2)S(C)(=O)=O)cc1`, the IC50 [3] was 4.76 µM (active) and the IC50 [4] was 3.89 µM (active).
With `C[n+]1cc(-c2ccccc2)n2c1CCCCC2` the IC50 [3] was 2.3 µM (active) and the IC50 [4] was 1.66 µM (active).
For `CC(C)(C)c1c(Cl)c(O)c(-c2ccccc2)c(=O)n1-c1ccccc1`, the AC50 [8] was 20.1 µM (active), the IC50 [9] was 8.83 µM (active) and the EC50 [10] was 27.2 µM (active). For the same compound, the IC50 [2] was 14.1 µM (active).
For `CSc1ccc(NC(=O)c2ccc(CN3CCCCC3)cc2)cc1`, the IC50 [11] was > 20 µM (inactive) and the IC50 [12] was 19.6 µM (active).
In the case of `COc1ccc(Br)cc1CNCC1CCCO1` (stereo not given), the AC50 [7] was > 52 µM (inactive).
With `CC1=C[C@@H]2c3cccc4[nH]cc(c34)C[C@H]2N(C)C1` [AGROCLAVINE] the EC50 [5] was 11.2 µM (active), the EC50 [6] was 8.67 µM (inconclusive) and the AC50 [7] was 38.4 µM (active).
